# Reference: ChEMBL document CHEMBL1149980, “Synthesis of rutaecarpine and cytotoxic analogues” (1995)
# Experiments:
# Type in all cases: functional
# Settings in all cases: Homo sapiens
# CCRF-CEM = experiment: Tested for in vitro cytotoxicity against leukemia cell line CCRF-CEM
# Hs-578T = experiment: Tested for in vitro cytotoxicity against breast cancer cell line Hs 578.T
# NCI-H460 = experiment: Tested for in vitro cytotoxicity against non-small cell lung cancer cell line NCI-H460
# A549 = experiment: Tested for in vitro cytotoxicity against non-small cell lung cancer cell line A549/ATCC
# OVCAR-4 = experiment: Tested for in vitro cytotoxicity against ovarian cancer cell line OVCAR-4
# 786-0 = experiment: Tested for in vitro cytotoxicity against renal cancer cell line 786-0
Structure (SMILES),GI50 (CCRF-CEM),GI50 (Hs-578T),GI50 (NCI-H460),GI50 (A549),GI50 (OVCAR-4),GI50 (786-0)
COc1ccc2c3c([nH]c2c1)-c1nc2ccccc2c(=O)n1CC3,> 25 µM,1.59 µM,1.38 µM,0.75 µM,> 25 µM,0.31 µM
O=c1c2ccccc2nc2n1CCc1c-2[nH]c2cc3c(cc12)OCO3,> 25 µM,5.05 µM,1.55 µM,> 25 µM,1.5 µM,1.08 µM
COc1ccc2[nH]c3c(c2c1)CCn1c-3nc2ccccc2c1=O,> 25 µM,> 25 µM,> 25 µM,> 25 µM,> 25 µM,> 25 µM
O=c1c2ccccc2nc2n1CCc1c-2[nH]c2ccccc12 [RUTAECARPINE],18.9 µM,22.6 µM,–,14.5 µM,18.9 µM,–
